Earlier results in patent publication US6372198B1, “Dentifrice for the mineralization and remineralization of teeth” (priority 2000, dated 2002).

Test system: periodontal disease
Settings: oral administration (pills, capsules, powders); certain clinical studies

## COC1=C(OC)C(=O)C(C/C=C(\C)CC/C=C(\C)CC/C=C(\C)CC/C=C(\C)CC/C=C(\C)CC/C=C(\C)CC/C=C(\C)CC/C=C(\C)CC/C=C(\C)CCC=C(C)C)=C(C)C1=O [coenzyme Q10]
  symptoms of periodontal disease, including inflammation, swelling, and bleeding of the gum tissues: alleviated the symptoms of periodontal disease
